Test results published in patent US20230192617A1, “AZABICYCLIC(THIO)AMIDES AS FUNGICIDAL COMPOUNDS” (Bayer CropScience Aktiengesellschaft, priority 2020, published 2023).

Columns and labels:
Alternaria alternata = Alternaria alternata in vitro cell test; assay type: cell-based; settings: 120 h, 20 ppm of active ingredient, liquid culture, 5 days incubation, spectrometric measurement of mycelium growth, read-out: efficacy (inhibition of fungal growth)
Summary of the method: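 Liquid culture assay in which A. alternata spores in medium received DMSO-solubilized compound (final DMSO ≤1%). After 5 days, mycelium growth was measured spectrometrically. Inhibition was calculated against fungicide-free control wells.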

Pyrenophora teres [1] = experiment: B-10. Pyrenophora teres in vitro cell test; assay type: cell-based; settings: 144 h, 20 ppm of active ingredient, 6 days incubation, liquid culture, absorbance, read-out: efficacy (inhibition of fungal growth)
Summary of the method: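 Liquid-culture assay on a P. teres spore suspension with compounds added to the medium from DMSO solutions, final DMSO ≤1%. Mycelium growth read spectrometrically after 6 days. Inhibition calculated from absorbance against untreated control wells.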

Sphaerotheca fuliginea = experiment: In vivo preventive test on Sphaerotheca fuliginea (powdery mildew on cucurbits); settings: Podosphaera fuliginea, 192 h; 500 ppm of active ingredient; preventive spray on gherkin; evaluated 8 days after inoculation; read-out: efficacy
Summary of the method: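 Young gherkin plants were sprayed with compound in DMSO/acetone/Tween 80 diluted in water. They were inoculated 24 h later with a spore suspension of Sphaerotheca fuliginea. Plants were then kept for 8 days at 20 °C and 70–80% relative humidity.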

[2] = system: Colletotrichum lindemuthianum; experiment: B-8. Colletotrichum lindemuthianum in vitro cell test; assay type: cell-based; settings: 144 h, 20 ppm of active ingredient, 6 days incubation, liquid culture, absorbance, read-out: efficacy (inhibition of fungal growth)
Summary of the method: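 Spore suspension of C. lindemuthianum in liquid medium exposed to DMSO-solubilized compounds (final DMSO ≤1%) for 6 days. Mycelial growth read by absorbance, with inhibition calculated relative to compound-free control wells.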

Septoria tritici = experiment: B-9. Septoria tritici in vitro cell test; assay type: cell-based; settings: Zymoseptoria tritici, 168 h; 20 ppm of active ingredient; 7 days incubation; liquid culture, absorbance; read-out: efficacy (inhibition of fungal growth)
Summary of the method: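 Compounds from DMSO stocks (final DMSO ≤1%) were added to liquid medium containing S. tritici spores to test inhibition of germination and mycelial growth. After 7 days, mycelium growth was read spectrometrically and inhibition derived from absorbance versus fungicide-free control wells.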

Pyrenophora teres [3] = experiment: In vivo preventive test on Pyrenophora teres (net blotch on barley); settings: 240 h, 500 ppm of active ingredient, preventive spray on barley, evaluated 10 days after inoculation, read-out: efficacy
Summary of the method: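 Young barley plants sprayed preventively with compound formulated in DMSO/acetone/Tween 80 and diluted in water; controls got solvent only. Inoculated 24 hours later with P. teres spore suspension, then held 48 hours at 20° C, 100% RH and 8 days at 20° C, 70-80% RH.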

Botrytis cinerea = experiment: In vivo preventive test on Botrytis cinerea (grey mould); settings: 500 ppm of active ingredient, preventive spray on gherkin or cabbage, evaluated 4 to 5 days after inoculation, read-out: efficacy
Summary of the method: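 Young gherkin or cabbage plants were sprayed with compound in DMSO/acetone/Tween 80 diluted in water, then inoculated 24 hours later with a B. cinerea spore suspension. Incubation lasted 4 to 5 days: gherkin at 17° C., 90% relative humidity; cabbage at 20° C., 100% relative humidity.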

[4] = Measurement of Log P values by HPLC on reversed phase columns (EEC directive 79/831 Annex V.A8); assay type: physicochemical; settings: reversed phase HPLC column, method [a]: LC-UV, acidic range, 0.1% formic acid in water and acetonitrile as eluent
Summary of the method: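 Reversed-phase HPLC with UV detection per EEC 79/831 Annex V.A8, linear 10–95% acetonitrile gradient. Aqueous eluent: 0.1% formic acid (acidic), 0.001 M ammonium acetate (neutral), or 0.1% phosphoric acid (acidic); multiple values in one method joined by "+".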

Row | SMILES | chromatographic logP [4] | inhibition at 20 ppm (Alternaria alternata) | inhibition at 20 ppm (Pyrenophora teres [1]) | pest or weed control at 500 ppm (Sphaerotheca fuliginea) | inhibition at 20 ppm [2] | inhibition at 20 ppm (Septoria tritici) | pest or weed control at 500 ppm (Pyrenophora teres [3]) | pest or weed control at 500 ppm (Botrytis cinerea)
1 | O=C(NC[C@H](F)c1ccc(Cl)cc1Cl)c1c(Oc2cccc(C(F)(F)F)c2)cnc2ccoc12 (racemic) [I-067] | 4.18 | 90 to 100% | 90 to 100% | 90 to 100% | 90 to 100% | 70 to 79% | 80 to 89% | 90 to 100%
2 | O=C(NC[C@H](F)c1ccc(Cl)cc1Cl)c1c(Oc2cccc(C3CC3)c2F)nnc2ccccc12 (racemic) [I-072] | 4.57 | 90 to 100% | 90 to 100% | 90 to 100% | 90 to 100% | 90 to 100% | 90 to 100% | 90 to 100%
3 | Cc1ccc(C(F)(F)CNC(=O)c2c(Oc3cccc(C4CC4)c3F)nnc3ccccc23)c(C)c1 [I-071, 3-(3-cyclopropyl-2-fluoro-phenoxy)-N-[2-(2,4-dimethyl-phenyl)-2,2-difluoro-ethyl]cinnoline-4-carboxamide] | 4.54 | 90 to 100% | 90 to 100% | 90 to 100% | 90 to 100% | 80 to 89% | 90 to 100% | 90 to 100%
4 | Cc1ccc(C(F)(F)CNC(=O)c2c(Oc3cccc(Cl)c3)nnc3c2CCCC3)c(C)c1 [I-121] | 3.89 | 90 to 100% | 90 to 100% | 90 to 100% | 90 to 100% | 90 to 100% | 90 to 100% | 90 to 100%
5 | Cc1ccc(C(F)CNC(=O)c2c(Oc3cccc(C(F)(F)F)c3)nnc3c2COCC3)c(C)c1 (centres unmarked) [I-123] | 3.61 | 90 to 100% | 90 to 100% | 90 to 100% | 90 to 100% | 90 to 100% | 90 to 100% | 90 to 100%
6 | Cc1ccc(C(F)(F)CNC(=O)c2c(Oc3cccc(C(F)(F)F)c3)nnc3c2COCC3)c(Cl)c1 [I-124] | 3.7 | 90 to 100% | 90 to 100% | 90 to 100% | 90 to 100% | 90 to 100% | 80 to 89% | 90 to 100%

Now from value to molecule, other results behind:

Row | chromatographic logP [4] | SMILES | inhibition at 20 ppm (Alternaria alternata) | inhibition at 20 ppm (Pyrenophora teres [1]) | pest or weed control at 500 ppm (Sphaerotheca fuliginea) | inhibition at 20 ppm [2] | inhibition at 20 ppm (Septoria tritici) | pest or weed control at 500 ppm (Pyrenophora teres [3]) | pest or weed control at 500 ppm (Botrytis cinerea)
7 | 4.19 | Cc1ccc([C@@H](F)CNC(=O)c2c(Oc3cccc(C(F)(F)F)c3)nnc3ccccc23)cc1C (racemic) [I-084] | 90 to 100% | 90 to 100% | 80 to 89% | 90 to 100% | 90 to 100% | 90 to 100% | 90 to 100%
8 | 4.42 | Cc1ccc(CCNC(=O)c2c(Oc3cccc(C4CC4)c3F)nnc3ccccc23)c(C)c1 [I-070] | 90 to 100% | 90 to 100% | 90 to 100% | 90 to 100% | 90 to 100% | 90 to 100% | 90 to 100%
9 | 4.05 | O=C(NCC(F)c1ccc(Cl)cc1Cl)c1c(Oc2cccc(C(F)(F)F)c2)nnc2c1CCCC2 (centres unmarked) [I-118] | 90 to 100% | 90 to 100% | 90 to 100% | 90 to 100% | 90 to 100% | 90 to 100% | 90 to 100%
10 | 4.11 | O=C(NCC(F)c1ccc(Cl)cc1Cl)c1c(Oc2cccc(C3CC3)c2)nnc2c1CCCC2 (centres unmarked) [I-119, 3-(3-cyclopropylphenoxy)-N-[2-(2,4-dichlorophenyl)-2-fluoro-ethyl]-5,6,7,8-tetrahydrocinnoline-4-carboxamide] | 90 to 100% | 90 to 100% | 90 to 100% | 90 to 100% | 90 to 100% | 90 to 100% | 90 to 100%
